Test results published in the NIST ThermoML archive (doi:10.1021/je700099w).
Numbers after ± are expanded uncertainties.

How the values were obtained:
[1] = refractive index (Na D-line) (dimensionless); settings: 298.15 K, 101.33 kPa, Liquid
[2] = 298.15 K; 101.33 kPa; Liquid

refractive index ([1]; Standard Abbe refractometry)	SMILES	refractive index [1]	mass density [2] [kg/m3]
1.40797 ± 0.00075	CCCCCO [pentan-1-ol]	–	810.8 ± 0.8
1.38305 ± 0.00075	CCCO [propan-1-ol]	–	799.6 ± 0.8

Further lines, the molecule ahead of its results:

SMILES	refractive index ([1]; Standard Abbe refractometry)	refractive index [1]	mass density [2] [kg/m3]
CCCCn1cc[n+](C)c1.F[P-](F)(F)(F)(F)F [1-butyl-3-methylimidazolium hexafluorophosphate]	–	1.40937 ± 0.0011	1367.3 ± 2.9
CCCCCCn1cc[n+](C)c1.F[P-](F)(F)(F)(F)F [1-hexyl-3-methylimidazolium hexafluorophosphate]	–	1.41787 ± 0.0011	1293.7 ± 2.5
CCCCCCCC[n+]1ccn(C)c1.F[P-](F)(F)(F)(F)F [1-octyl-3-methylimidazolium hexafluorophosphate]	–	1.42302 ± 0.0011	1235.7 ± 2.2
CCCCO [butan-1-ol]	1.39726 ± 0.00072	–	805.6 ± 0.5
